According to US5140011A, “Amino acid derivatives which have renin inhibiting activity” (Hoffmann-La Roche, Inc., priority 1989, dated 1992):

Each compound was assayed against T1, human renin (Homo sapiens, UniProt P00797) (assay: In vitro test with pure human renin). Details: human tetradecapeptide renin substrate (hTD), pH 7.4, 3 hours at 37° C. vs 4° C., angiotensin I measured via RIA.
T1 sequence (P00797 67-406): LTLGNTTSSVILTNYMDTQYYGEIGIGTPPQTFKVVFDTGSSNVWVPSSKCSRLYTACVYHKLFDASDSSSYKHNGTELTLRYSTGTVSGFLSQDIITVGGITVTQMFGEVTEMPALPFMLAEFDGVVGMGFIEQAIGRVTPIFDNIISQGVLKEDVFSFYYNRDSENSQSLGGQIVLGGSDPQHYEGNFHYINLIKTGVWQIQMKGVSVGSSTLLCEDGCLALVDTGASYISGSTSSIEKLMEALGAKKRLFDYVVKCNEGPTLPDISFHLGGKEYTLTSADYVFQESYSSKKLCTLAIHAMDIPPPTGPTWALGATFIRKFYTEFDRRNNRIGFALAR
Type: biochemical
Experimental: In vitro test with pure human renin
The test is carried out in Eppendorf test tubes. The incubation mixture consists of (1) 100 μl of human renin in buffer A (0.1M sodium phosphate solution, pH 7.4, containing 0.1% bovine serum albumin, 0.1% sodium azide and 1 mM ethylenediaminetetraacetic acid), sufficient for a renin activity of 2-3 ng of angiotensin I/ml/hr.; (2) 145 μl of buffer A; (3) 30 μl of a 10 μM human tetradecapeptide renin substrate (hTD) in 10 mM hydrochloric acid; (4) 15 μl of dimethyl sulphoxide with or without inhibitor and (5) 10 μl of a 0.03 molar solution of hydroxyquinoline sulphate in water.
The samples are incubated for 3 hours at 37° C. or 4° C. in triplicate. 2×100 μl samples per experimental test tube are used in order to measure the production of angiotensin I via RIA (standard radioimmunoassay; clinical assay solid phase kit). Cross reactivities of the antibody used in the RIA are: angiotensin I 100%; angiotensin II 0.0013%; hTD (angiotensin I-Val-Ile-His-Ser-OH) 0.09%. The production of angiotensin I is determined by the difference between the experiment at 37° C. and that at 4° C.
The following controls are carried out:
(a) Incubation of hTD samples without renin and without inhibitor at 37° C. and 4° C. The difference between these two values gives the base value of angiotensin I production.
(b) Incubation of hTD samples with renin, but without inhibitor at 37° C. and 4° C. The difference between these values give the maximal value of angiotensin I production.
In each sample the base value of the angiotensin I production is subtracted from the angiotensin I production which is determined. The difference between the maximal value and the base value gives the value of the maximal substrate hydrolysis (=100%) by renin.
The results are given as IC50 values which denote that concentration of the inhibitor at which the enzymatic activity is inhibited by 50%. The IC50 values are determined from a linear regression curve from a logit-log plot.

Row | SMILES | IC50 [nM]
1 | CCCCNC(=O)C[C@@H](C[C@H](O)[C@H](CC1CCCCC1)NC(=O)[C@H](Cc1c[nH]cn1)NC(=O)[C@H](Cc1ccccc1)NC(=O)OC(C)(C)C)C(C)C [B, t-butyl [(S)-α-[[(S)-1-[[(1S,2S,4R)-4-[(butylcarbamoyl)methyl]-1-(cyclohexylmethyl)-2-hydroxy-5-methylhexyl]carbamoyl]-2-imidazol-4-ylethyl]carbamoyl]phenethyl]carbamate] | 9
2 | CC(C)[C@@H](CCOC(=O)C(C)(C)C)C[C@H](O)[C@H](CC1CCCCC1)NC(=O)C(Cc1c[nH]cn1)NC(=O)[C@H](Cc1ccccc1)NC(=O)[C@H]1CCCN1C(=O)OC(C)(C)C (mixture of isomers) [F, t-butyl (R)-2-[[(S)-α-[[(R and S)-1-[[(1S,2S,4S)-1-(cyclohexylmethyl]-2-hydroxy-4-isopropyl-6-(pivaloyloxy)hexyl]carbamoyl]-2-imidazol-4-ylethyl]carbamoyl]phenethyl]carbamoyl]-1-pyrrolidinecarboxylate] | 10
3 | CCCCCC(=O)[C@@H](C[C@H](O)[C@H](CC1CCCCC1)NC(=O)[C@H](Cc1c[nH]cn1)NC(=O)[C@@H](CC(=O)C(C)(C)C)Cc1ccccc1)C(C)C [C, (S)-N-[(1S,2S,4S)-1-(cyclohexylmethyl)-2-hydroxy-4-isopropyl-5-oxodecyl]-α-[(R)-α-(3,3-dimethyl-2-oxobutyl]hydrocinnamamido]imidazole-4-propionamide] | 7
4 | CC(C)C(CC(O)C(CC1CCCCC1)NC(=O)C(Cc1c[nH]cn1)NC(=O)C(Cc1ccccc1)NC(=O)C1CCCN1C(=O)OC(C)(C)C)C(O)CNCc1ccccn1 (racemic) [I, (2RS,3S,5S,6S)-6-(Boc-D-Pro-Phe-His-NH)-7-cyclohexyl-3-isopropyl-1-[(2-pyridylmethyl)amino]-2,5-heptanediol] | 8
5 | CC(C)C(CC(O)C(CC1CCCCC1)NC(=O)C(Cc1c[nH]cn1)NC(=O)C(Cc1ccccc1)NC(=O)C1CCCN1C(=O)OC(C)(C)C)C(O)CNCCc1ccccc1 (single isomer, unassigned) [H, (2R or S,3S,5S,6S)-6-(Boc-D-Pro-Phe-His-NH)-7-cyclohexyl-3-isopropyl-1-(phenethylamino)-2,5-heptanediol] | 4
6 | CC(C)[C@@H](/C=C/C(=O)NCc1ccccn1)C[C@H](O)[C@H](CC1CCCCC1)NC(=O)[C@H](Cc1c[nH]cn1)NC(=O)[C@@H](CC(=O)C(C)(C)C)Cc1ccccc1 [D, (S)-N-[(1S,2S,4S,E)-1-(cyclohexylmethyl)-2-hydroxy-4-isopropyl-6-[(2-pyridylmethyl)carbamoyl]-5-hexenyl]-α-[(R)-α-(3,3-dimethyl-2-oxobutyl)hydrocinnamamido]imidazole-4-propionamide] | 13
7 | CC(C)C(CC(O)C(CC1CCCCC1)NC(=O)C(Cc1c[nH]cn1)NC(=O)C(Cc1ccccc1)NC(=O)C1CCCN1C(=O)OC(C)(C)C)C(O)CNCCc1ccccc1 (single isomer, unassigned) [G, (2S or R,3S,5S,6S)-6-(Boc-D-Pro-Phe-His-NH)-7-cyclohexyl-3-isopropyl-1-(phenethylamino)-2,5-heptanediol] | 11
8 | CCCCNC(=O)C[C@@H](C[C@H](O)[C@H](CC1CCCCC1)NC(=O)[C@H](Cc1c[nH]cn1)NC(=O)[C@@H](CC(=O)C(C)(C)C)Cc1ccccc1)C(C)C [A, (S)-N-[(1S,2S,4R)-4-[(Butylcarbamoyl)methyl]-1-(cyclohexylmethyl)-2-hydroxy-5-methylhexyl]-α-[(R)-α-(3,3-dimethyl-2-oxobutyl)hydrocinnamamido]imidazole-4-propionamide] | 3
9 | CCC(=O)OCC[C@@H](C[C@H](O)[C@H](CC1CCCCC1)NC(=O)[C@H](Cc1c[nH]cn1)NC(=O)[C@H](Cc1ccccc1)NC(=O)OC(C)(C)C)C(C)C [E, t-butyl [(S)-α-[[(S)-1-[[(1S,2S,4S)-1-(cyclohexylmethyl)-2-hydroxy-4-isopropyl-6-(propionyloxy)hexyl]carbamoyl]-2-imidazol-4-ylethyl]carbamoyl]phenethyl]carbamate] | 9
